Converted amounts (≈) assume the structure as drawn.
Legend:
[1] = molecular target: T1, PBP3 from Pseudomonas aeruginosa (PAO1) (Pseudomonas aeruginosa, UniProt G3XD46); test: Bocillin-FL fluorescence polarization competition binding, P. aeruginosa PBP3; settings: Binding affinity to P. aeruginosa PBP3; fluorescence polarization competition binding assay using Bocillin-FL; read-out: P. aeruginosa PBP3 Potency
T1 construct: made in house
Outline: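 Purified PBPs pre-incubated with inhibitor (E. coli PBP3 1.5 μM, 30 min; P. aeruginosa PBP3 0.75 μM, A. baumannii PBP1a 1 μM and PBP3 0.2 μM, 15 min), then Bocillin-FL 0.1 μM (0.05 μM for PBP1a) added; FP read up to 60 min. EC50 = concentration halving bound Bocillin-FL.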

E. coli AG100 = test: microbe, parasite or virus in culture; type: cell-based; settings: Escherichia coli, AG100, read-out: MIC E. coli AG100
E. coli 901C = test: microbe, parasite or virus in culture; type: cell-based; settings: Escherichia coli, read-out: MIC E. coli 901C
E. coli AG100A = test: Broth microdilution MIC in CAMHB; type: cell-based; settings: Escherichia coli, read-out: MIC E. coli AG100A
K. pneumoniae 848844 = test: microbe, parasite or virus in culture; type: cell-based; settings: Klebsiella pneumoniae, 848844, read-out: MIC K. pneumoniae 848844
K. pneumoniae SI-117 = test: microbe, parasite or virus in culture; type: cell-based; settings: Klebsiella pneumoniae, SI117, read-out: MIC K. pneumoniae SI-117
A. baumannii ATCC 19606 = test: microbe, parasite or virus in culture; type: cell-based; settings: Acinetobacter baumannii, ATCC19606, read-out: MIC, A. baumannii ATCC 19606
P. aeruginosa ATCC 35151 = test: microbe, parasite or virus in culture; type: cell-based; settings: Pseudomonas aeruginosa, ATCC35151, read-out: MIC P. aeruginosa ATCC 35151
[2] = test system: P. aeruginosa (ΔmexAB-oprM); test: Broth microdilution MIC in CAMHB; type: cell-based; settings: Pseudomonas aeruginosa; read-out: MIC P. aeruginosa ΔmexAB-oprM
[3] = test system: N. gonorrhoeae ATCC 49226; test: Liquid broth MIC in Fastidious broth; settings: Neisseria gonorrhoeae, ATCC49226, read-out: Minimum Inhibitory Concentration (MIC), N. gonorrhoeae ATCC 49226
N. gonorrhoeae FA1090 = test: Liquid broth MIC in Fastidious broth; settings: Neisseria gonorrhoeae, FA1090, read-out: Minimum Inhibitory Concentration (MIC), N. gonorrhoeae FA 1090
N. gonorrhoeae WHO L = test: Liquid broth MIC in Fastidious broth; settings: Neisseria gonorrhoeae, read-out: Minimum Inhibitory Concentration (MIC), N. gonorrhoeae WHO L
N. gonorrhoeae WHO M = test: Liquid broth MIC in Fastidious broth; settings: Neisseria gonorrhoeae, read-out: Minimum Inhibitory Concentration (MIC), N. gonorrhoeae WHO M
N. gonorrhoeae WHO X = test: Liquid broth MIC in Fastidious broth; settings: Neisseria gonorrhoeae, read-out: Minimum Inhibitory Concentration (MIC), N. gonorrhoeae WHO X
N. gonorrhoeae WHO Z = test: Liquid broth MIC in Fastidious broth; settings: Neisseria gonorrhoeae, read-out: Minimum Inhibitory Concentration (MIC), N. gonorrhoeae WHO Z
N. gonorrhoeae WHO Q = test: Liquid broth MIC in Fastidious broth; settings: Neisseria gonorrhoeae, read-out: Minimum Inhibitory Concentration (MIC), N. gonorrhoeae WHO Q

T1 sequence (G3XD46 whole entry): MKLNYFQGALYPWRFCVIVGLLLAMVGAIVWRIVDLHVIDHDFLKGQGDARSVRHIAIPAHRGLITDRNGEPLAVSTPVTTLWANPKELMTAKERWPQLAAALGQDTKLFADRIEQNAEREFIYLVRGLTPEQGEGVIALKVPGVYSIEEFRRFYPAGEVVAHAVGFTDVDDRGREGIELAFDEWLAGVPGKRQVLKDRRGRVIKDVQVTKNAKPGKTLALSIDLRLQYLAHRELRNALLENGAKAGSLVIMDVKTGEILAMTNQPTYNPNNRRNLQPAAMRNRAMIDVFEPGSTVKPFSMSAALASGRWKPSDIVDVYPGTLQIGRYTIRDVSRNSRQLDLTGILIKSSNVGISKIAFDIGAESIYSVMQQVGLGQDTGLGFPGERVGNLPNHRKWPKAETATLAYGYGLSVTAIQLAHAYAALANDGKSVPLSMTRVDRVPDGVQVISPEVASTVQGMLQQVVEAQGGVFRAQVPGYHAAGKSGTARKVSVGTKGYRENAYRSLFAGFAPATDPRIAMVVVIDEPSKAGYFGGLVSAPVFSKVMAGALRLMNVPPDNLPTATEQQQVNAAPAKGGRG

SMILES	IC50 [1]	MIC (E. coli AG100)	MIC (E. coli 901C)	MIC (E. coli AG100A)	MIC (K. pneumoniae 848844)	MIC (K. pneumoniae SI-117)	MIC (A. baumannii ATCC 19606)	MIC (P. aeruginosa ATCC 35151)	MIC [2]	MIC [3]	MIC (N. gonorrhoeae FA1090)	MIC (N. gonorrhoeae WHO L)	MIC (N. gonorrhoeae WHO M)	MIC (N. gonorrhoeae WHO X)	MIC (N. gonorrhoeae WHO Z)	MIC (N. gonorrhoeae WHO Q)
O=C(O)c1cccc2c1OB(O)[C@@H](NC(=O)[C@@H](NC(=O)N1CCCCC1=O)c1ccc(P(=O)(O)O)cc1)C2 [Example 36, (R)-2-hydroxy-3-((S)-2-(2-oxopiperidine-1-carboxamido)-2-(4-phosphonophenyl)acetamido)-3,4-dihydro-2H-benzo[39e][1,2]oxaborinine-8-carboxylic acid]	50 to 250 µM	> 128 µg/mL	8 to 16 µg/mL (≈ 14.7 to 29.3 µM)	> 128 µg/mL	> 128 µg/mL	> 128 µg/mL	> 128 µg/mL	8 to 16 µg/mL (≈ 14.7 to 29.3 µM)	> 128 µg/mL	16 to 32 µg/mL (≈ 29.3 to 58.7 µM)	1 to 2 µg/mL (≈ 1.83 to 3.67 µM)	16 to 32 µg/mL (≈ 29.3 to 58.7 µM)	1 to 2 µg/mL (≈ 1.83 to 3.67 µM)	16 to 32 µg/mL (≈ 29.3 to 58.7 µM)	16 to 32 µg/mL (≈ 29.3 to 58.7 µM)	16 to 32 µg/mL (≈ 29.3 to 58.7 µM)
O=C(O)c1cccc2c1OB(O)[C@@H](NC(=O)[C@H](NC(=O)N1CCCCC1=O)c1ccc(P(=O)(O)O)cc1)C2 [Example 37, (R)-2-hydroxy-3-((R)-2-(2-oxopiperidine-1-carboxamido)-2-(4-phosphonophenyl)acetamido)-3,4-dihydro-2H-benzo[e][1,2]oxaborinine-8-carboxylic acid]	< 10 µM	> 128 µg/mL	< 1 µg/mL	32 to 64 µg/mL (≈ 58.7 to 117 µM)	> 128 µg/mL	> 128 µg/mL	> 128 µg/mL	< 1 µg/mL	8 to 16 µg/mL (≈ 14.7 to 29.3 µM)	< 1 µg/mL	< 1 µg/mL	16 to 32 µg/mL (≈ 29.3 to 58.7 µM)	< 1 µg/mL	16 to 32 µg/mL (≈ 29.3 to 58.7 µM)	1 to 2 µg/mL (≈ 1.83 to 3.67 µM)	1 to 2 µg/mL (≈ 1.83 to 3.67 µM)
CN1CCCN(C(=O)NC(C(=O)N[C@H]2Cc3cccc(C(=O)O)c3OB2O)c2ccc(P(=O)(O)O)cc2)C1=O (stereo partly drawn) [Example 38, (3R)-2-hydroxy-3-(2-(3-methyl-2-oxohexahydropyrimidine-1-carboxamido)-2-(4-phosphonophenyl)acetamido)-3,4-dihydro-2H-benzo[e][1,2]oxaborinine-8-carboxylic acid]	< 10 µM	> 128 µg/mL	2 to 4 µg/mL (≈ 3.57 to 7.14 µM)	32 to 64 µg/mL (≈ 57.1 to 114 µM)	> 128 µg/mL	> 128 µg/mL	> 128 µg/mL	2 to 4 µg/mL (≈ 3.57 to 7.14 µM)	32 to 64 µg/mL (≈ 57.1 to 114 µM)	1 to 2 µg/mL (≈ 1.78 to 3.57 µM)	< 1 µg/mL	16 to 32 µg/mL (≈ 28.6 to 57.1 µM)	< 1 µg/mL	16 to 32 µg/mL (≈ 28.6 to 57.1 µM)	1 to 2 µg/mL (≈ 1.78 to 3.57 µM)	4 to 8 µg/mL (≈ 7.14 to 14.3 µM)
O=C(O)c1cccc2c1OB(O)[C@@H](NC(=O)[C@@H](NC(=O)N1CCNC1=O)c1ccc(P(=O)(O)O)cc1)C2 [Example 39, (R)-2-hydroxy-3-((S)-2-(2-oxoimidazolidine-1-carboxamido)-2-(4-phosphonophenyl)acetamido)-3,4-dihydro-2H-benzo[e][1,2]oxaborinine-8-carboxylic acid]	10 to 50 µM	> 128 µg/mL	2 to 4 µg/mL (≈ 3.76 to 7.52 µM)	> 128 µg/mL	> 128 µg/mL	> 128 µg/mL	> 128 µg/mL	2 to 4 µg/mL (≈ 3.76 to 7.52 µM)	> 128 µg/mL	1 to 2 µg/mL (≈ 1.88 to 3.76 µM)	< 1 µg/mL	16 to 32 µg/mL (≈ 30.1 to 60.1 µM)	< 1 µg/mL	16 to 32 µg/mL (≈ 30.1 to 60.1 µM)	1 to 2 µg/mL (≈ 1.88 to 3.76 µM)	4 to 8 µg/mL (≈ 7.52 to 15 µM)
O=C(O)c1cccc2c1OB(O)[C@@H](NC(=O)[C@H](NC(=O)N1CCNC1=O)c1ccc(P(=O)(O)O)cc1)C2 [Example 40, (R)-2-hydroxy-3-((R)-2-(2-oxoimidazolidine-1-carboxamido)-2-(4-phosphonophenyl)acetamido)-3,4-dihydro-2H-benzo[e][1,2]oxaborinine-8-carboxylic acid]	< 10 µM	32 to 64 µg/mL (≈ 60.1 to 120 µM)	< 1 µg/mL	8 to 16 µg/mL (≈ 15 to 30.1 µM)	> 128 µg/mL	> 128 µg/mL	32 to 64 µg/mL (≈ 60.1 to 120 µM)	< 1 µg/mL	8 to 16 µg/mL (≈ 15 to 30.1 µM)	< 1 µg/mL	< 1 µg/mL	1 to 2 µg/mL (≈ 1.88 to 3.76 µM)	< 1 µg/mL	1 to 2 µg/mL (≈ 1.88 to 3.76 µM)	< 1 µg/mL	< 1 µg/mL

Source: patent US20240270762A1, “PENICILLIN-BINDING PROTEIN INHIBITORS” (priority 2021, published 2024)
